Data reported in patent US11542235B2, “Herbicidal 3-azaspiro[5.5] undecane-8, 10-dione compounds” (SYNGENTA PARTICIPATIONS AG, priority 2018, dated 2023).

Assays:
Type in all cases: in vivo
Lolium perenne (LOLPE) = test: Glasshouse herbicidal test, pre- and post-emergence, Lolium perenne; details: 250 g/h, evaluated after 13 days, five point scale; for percentage damage caused to the plant, LOLPE POST: post-emergence; for percentage damage caused to the plant, LOLPE PRE: pre-emergence
Procedure, shortened: (§1)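 Spray solution: acetone/water (50:50), 0.5% Tween 20, applied at 250 g/h. Timing: 1 d (pre-emergence) or 8 d (post-emergence) after sowing. Readout: % plant damage at 13 d, banded 1–5.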

Setaria faberi (SETFA) = test: Glasshouse herbicidal test, pre- and post-emergence, Setaria faberi; details: 250 g/h, evaluated after 13 days, five point scale; for percentage damage caused to the plant, SETFA POST: post-emergence; for percentage damage caused to the plant, SETFA PRE: pre-emergence
Procedure, shortened: as §1

[1] = system: Alopecurus myosuroides (ALOMY); test: Glasshouse herbicidal test, pre- and post-emergence, Alopecurus myosuroides; details: 250 g/h, evaluated after 13 days, five point scale; for percentage damage caused to the plant, ALOMY POST: post-emergence; for percentage damage caused to the plant, ALOMY PRE: pre-emergence
Procedure, shortened: as §1

[2] = system: Echinochloa crus-galli (ECHCG); test: Glasshouse herbicidal test, pre- and post-emergence, Echinochloa crus-galli; details: 250 g/h, evaluated after 13 days, five point scale; for percentage damage caused to the plant, ECHCG POST: post-emergence; for percentage damage caused to the plant, ECHCG PRE: pre-emergence
Procedure, shortened: as §1

Avena fatua (AVEFA) = test: Glasshouse herbicidal test, pre- and post-emergence, Avena fatua; details: 250 g/h, evaluated after 13 days, five point scale; for percentage damage caused to the plant, AVEFA POST: post-emergence; for percentage damage caused to the plant, AVEFA PRE: pre-emergence
Procedure, shortened: as §1

SMILES	percentage damage caused to the plant, LOLPE POST (Lolium perenne (LOLPE))	percentage damage caused to the plant, LOLPE PRE (Lolium perenne (LOLPE))	percentage damage caused to the plant, SETFA POST (Setaria faberi (SETFA))	percentage damage caused to the plant, SETFA PRE (Setaria faberi (SETFA))	percentage damage caused to the plant, ALOMY POST [1]	percentage damage caused to the plant, ALOMY PRE [1]	percentage damage caused to the plant, ECHCG POST [2]	percentage damage caused to the plant, ECHCG PRE [2]	percentage damage caused to the plant, AVEFA POST (Avena fatua (AVEFA))	percentage damage caused to the plant, AVEFA PRE (Avena fatua (AVEFA))
CC#Cc1cc(C)c(C2=C(OS(=O)(=O)CC)CC3(CCN(C(C)=O)CC3)CC2=O)c(C)c1 [Compound P13]	5 (5=80-100%)	5 (5=80-100%)	5 (5=80-100%)	5 (5=80-100%)	5 (5=80-100%)	4 (4=60-79%)	5 (5=80-100%)	4 (4=60-79%)	5 (5=80-100%)	5 (5=80-100%)
CC#Cc1cc(C)c(C2=C(OC(=O)SC(C)C)CC3(CCN(C(C)=O)CC3)CC2=O)c(C)c1 [Compound P14]	5 (5=80-100%)	5 (5=80-100%)	5 (5=80-100%)	5 (5=80-100%)	5 (5=80-100%)	5 (5=80-100%)	5 (5=80-100%)	5 (5=80-100%)	5 (5=80-100%)	5 (5=80-100%)
CC#Cc1cc(C)c(C2=C(OC(=O)C3CC3)CC3(CCN(C(C)=O)CC3)CC2=O)c(C)c1 [Compound P15]	5 (5=80-100%)	5 (5=80-100%)	5 (5=80-100%)	5 (5=80-100%)	5 (5=80-100%)	5 (5=80-100%)	5 (5=80-100%)	5 (5=80-100%)	5 (5=80-100%)	5 (5=80-100%)
CC#Cc1cc(C)c(C2=C(OC(=O)OC)CC3(CCN(C(=O)C(F)F)CC3)CC2=O)c(C)c1 [Compound P16]	5 (5=80-100%)	5 (5=80-100%)	5 (5=80-100%)	5 (5=80-100%)	5 (5=80-100%)	5 (5=80-100%)	5 (5=80-100%)	5 (5=80-100%)	5 (5=80-100%)	5 (5=80-100%)
C#CCOC1=C(c2c(C)cc(C#CC)cc2C)C(=O)CC2(CCN(C(C)=O)CC2)C1 [Compound P17]	5 (5=80-100%)	5 (5=80-100%)	5 (5=80-100%)	5 (5=80-100%)	5 (5=80-100%)	5 (5=80-100%)		5 (5=80-100%)	5 (5=80-100%)	5 (5=80-100%)
